Test results as given in patent publication US10136647B2, “Synergistic Bacillus thuringiensis subsp. kurstaki and chlorantraniliprole mixtures for diamondback moth, beet armyworm, sugarcane borer, soybean looper and corn earworm control” (priority 2015, dated 2018).
Where two headings read alike, the source gives them in different places.

Assays:
[1] = system: diamondback moth larvae; assay: Laboratory leaf dip test on diamondback moth larvae; assay type: in vivo; conditions: Plutella xylostella, foliar, 24 h after treatment, Btk 0.54 ppm, chlorantraniliprole 0.0009 ppm, read-out: % Efficacy
Description: The following examples illustrate the synergy of Bacillus thuringiensis subsp. kurstaki and chlorantraniliprole when controlling diamondback moth, beet armyworm, sugarcane borer, soybean looper, and corn earworm. DiPel® DF was used as the source of Bacillus thuringiensis subsp. kurstaki and Coragen® was used as the source of chlorantraniliprole. The present invention is not limited to the products or formulation types used herein. In each example below, the studies were conducted as follows.
For these tests, standardized laboratory leaf dip methods were used to inoculate plant material with treatment(s). Dry, treated leaves were placed into Petri dishes (100×25 mm) containing filter paper wetted with 500 μl of distilled H2O (“dH2O”). […] Synergy ratings were calculated for each test. […]
% Cexp=A+B−(AB/100), where % Cexp is the expected efficacy and “in which A and B are the control levels given by the single [insecticides]. […] Adopting a conservative approach, Applicant determined synergy to be present at ratios of >1.15. […]
In order to determine synergy, rates below normal field rate ranges must be used. If normal field rate ranges are used, all of the larvae would die (combining a lethal or near lethal dose of Bacillus thuringiensis subsp. kurstaki with a lethal dose of chlorantraniliprole would most likely lead to larvae death) in every treatment and synergy would not be able to be determined. […]

[2] = system: beet armyworm larvae; assay: Laboratory leaf dip test on beet armyworm larvae; assay type: in vivo; conditions: Spodoptera exigua, foliar, Btk 0.54 ppm, chlorantraniliprole 0.0009 ppm, read-out: % Efficacy
Description: (§1) DiPel® DF was used as the source of Bacillus thuringiensis subsp. kurstaki and Coragen® was used as the source of chlorantraniliprole. The present invention is not limited to the products or formulation types used herein. In each example below, the studies were conducted as follows.
(§2) For these tests, standardized laboratory leaf dip methods were used to inoculate plant material with treatment(s). Dry, treated leaves were placed into Petri dishes (100×25 mm) containing filter paper wetted with 500 μl of distilled H2O (“dH2O”). Each dish was then infested with between 5 and 10 larvae, dependent on species. Efficacy ratings were taken at specified intervals. Synergy ratings were calculated for each test.
(§3) % Cexp=A+B−(AB/100), where % Cexp is the expected efficacy and “in which A and B are the control levels given by the single [insecticides]. If the ratio between the experimentally observed efficacy of the mixture Cobs and the expected efficacy of the mixture is greater than 1, synergistic interactions are present in the mixture.” (Gisi, Synergisitic Interaction of Fungicides in Mixtures, The American Phytopathological Society, 86:11, 1273-1279,1996). Adopting a conservative approach, Applicant determined synergy to be present at ratios of >1.15.

[3] = system: cabbage looper larvae; assay: Laboratory leaf dip test on cabbage looper larvae; assay type: in vivo; conditions: Trichoplusia ni, foliar, Btk 0.54 ppm, chlorantraniliprole 0.0009 ppm, read-out: % Efficacy
Description: as §1, §2, §3

[4] = system: sugarcane borer larvae; assay: Laboratory leaf dip test on sugarcane borer larvae; assay type: in vivo; conditions: Diatraea saccharalis, foliar, Btk 0.54 ppm, chlorantraniliprole 0.0009 ppm, read-out: % Efficacy
Description: as §1, §2, §3

[5] = system: southwestern corn borer larvae; assay: Laboratory leaf dip test on southwestern corn borer larvae; assay type: in vivo; conditions: foliar, 72 h after treatment, Btk 0.54 ppm, chlorantraniliprole 0.0009 ppm, read-out: % Efficacy
Description: as §1, §2, §3

[6] = system: soybean looper larvae; assay: Laboratory leaf dip test on soybean looper larvae; assay type: in vivo, Chrysodeixis includens; conditions: foliar, Btk 0.54 ppm, chlorantraniliprole 0.045 μg/ml, read-out: % Efficacy
Description: as §1, §2, §3
In this study, the response of soybean looper larvae to Bacillus thuringiensis subsp. kurstaki and chlorantraniliprole was observed.
For this species, the same ppm of Bacillus thuringiensis subsp. kurstaki was used, but 0.045 μg/ml was used for chlorantraniliprole.

[7] = system: corn earworm larvae; assay: Laboratory leaf dip test on corn earworm larvae; assay type: in vivo; conditions: Helicoverpa zea, foliar, Btk 0.54 ppm, chlorantraniliprole 0.0009 ppm, read-out: % Efficacy
Description: as §1, §2, §3

`CNC(=O)c1cc(Cl)cc(C)c1NC(=O)c1cc(Br)nn1-c1ncccc1Cl` [Chlorantraniliprole] gave an Emax at 0.0009 ppm [1] of 12%, an Emax at 0.0009 ppm ([2]; 24 h after treatment) of 7% and an Emax at 0.0009 ppm ([2]; 48 h after treatment) of 17%. The Emax at 0.0009 ppm ([2]; 72 h after treatment) was 30%, the Emax at 0.0009 ppm ([3]; 24 h after treatment) was 46% and the Emax at 0.0009 ppm ([3]; 48 h after treatment) was 46%. For the same compound, the Emax at 0.0009 ppm ([4]; 24 h after treatment) was 10%, the Emax at 0.0009 ppm ([4]; 48 h after treatment) was 10% and the Emax at 0.0009 ppm ([4]; 72 h after treatment) was 19%. The Emax at 0.0009 ppm [5] was 31%, the Emax at 0.045 µg/mL ([6]; 24 h after treatment) was 7% and the Emax at 0.045 µg/mL ([6]; 48 h after treatment) was 10%. For the same compound, the Emax at 0.045 µg/mL ([6]; 72 h after treatment) was 17%, the Emax at 0.0009 ppm ([7]; 24 h after treatment) was 7% and the Emax at 0.0009 ppm ([7]; 48 h after treatment) was 20%. The Emax at 0.0009 ppm ([7]; 72 h after treatment) was 20%.
